Source: patent US20250136946A1, “REAL-TIME CHEMICAL SCREENING METHOD USING LIVER ORGANOIDS FLUORESCENTLY LABELED WITH CYTOCHROME P450 1A1 ENZYME” (priority 2023, published 2025)
Like-named read-outs stand apart in the source and are kept apart here.

Tests used:
[1] = system: CYP1A1; settings: for mCherry fluorescence intensity at different concentrations: real-time, TCDD positive control
Method: The CYP1A1 fluorescently labelled stem cell line-derived hepatic organoids were treated with the selected hazardous chemicals, tert-butylhydroquinone (tBHQ), 1,2-naphtoquinone (1,2-NQ), and 1,4-naphtoquinone (1,4-NQ) to observe the changes in mCherry fluorescence intensity in real-time.

[2] = system: CYP1A1; assay: CYP1A1 mRNA expression level in CYP1A1-mCherry hPSC-derived hepatic organoids; type: cell-based, human
[3] = hepatic organoids, real-time fluorescence, 24 hours of treatment

SMILES: O=C1C=Cc2ccccc2C1=O [1,2-NQ, 1,2-Naphtoquinone]
- mCherry fluorescence intensity at different concentrations ([1]; hepatic organoids): increased in a concentration-dependent manner

SMILES: O=C1C=CC(=O)c2ccccc21 [1,4-NQ, 1,4-Naphtoquinone]
- mCherry fluorescence intensity at different concentrations ([1]; hepatic organoids): increased in a concentration-dependent manner

SMILES: Cc1ccc2cc3c(ccc4ccccc43)c3c2c1CC3 [3-MC, 3-methylcholanthrene]
- mCherry fluorescence intensity in hepatic organoids [1, 3]: increase

SMILES: Cc1ccccc1N=Nc1ccc(NC(=O)c2ccnn2C)c(C)c1 [CH223191]
- CYP1A1 gene expression level, treated together with AHR agonists ([2]; treated together with TCDD and BaP): decreased
- CYP1A1 mRNA expression level, treated together with three hazardous chemicals ([2]; treated together with tBHQ, 1,2-NQ, 1,4-NQ): decrease
- mCherry fluorescence intensity, treated together with AHR agonists ([1]; hepatic organoids, treated together with TCDD and BaP): decreased
- mCherry fluorescence intensity, treated together with three hazardous chemicals ([1]; hepatic organoids, treated together with tBHQ, 1,2-NQ, 1,4-NQ): decreased

SMILES: COc1cccc2c1C(=O)c1c(O)c3c(c(O)c1C2=O)C[C@@](O)(C(=O)CO)C[C@@H]3O[C@H]1C[C@H](N)[C@H](O)[C@H](C)O1 [DOX, doxorubicin]
- mCherry fluorescence intensity in hepatic organoids [1]: increase

SMILES: O=Cc1c2c(cc3c1=Nc1ccccc1-3)=Nc1ccccc1-2 [FICZ, 6-formylindolo [3,2-B]carbazole]
- mCherry fluorescence intensity in hepatic organoids [1, 3]: increase

SMILES: Clc1cc2c(cc1Cl)Oc1cc(Cl)c(Cl)cc1O2 [TCDD, 2,3,7,8-tetrachlorodibenzo-p-dioxin]
- CYP1A1 mRNA expression level ([2]; 24 hours after treatment): increased
- mCherry fluorescence intensity, time-lapse imaging ([1]; hepatic organoids, 3-hour intervals up to 72 hours after treatment): increased in a time-dependent manner
- mCherry fluorescence ([1]; hepatic organoids, 24 hours after treatment, imaging device): increase

SMILES: COc1cccc2c1C(=O)c1c(O)c3c(c(O)c1C2=O)C[C@@](O)(C(C)=O)C[C@@H]3O[C@H]1C[C@H](N)[C@H](O)[C@H](C)O1 [daunorubicin]
- mCherry fluorescence intensity in hepatic organoids [1]: increase

SMILES: CC(=O)[C@]1(O)Cc2c(O)c3c(c(O)c2[C@@H](O[C@H]2C[C@H](N)[C@H](O)[C@H](C)O2)C1)C(=O)c1ccccc1C3=O [idarubicin]
- mCherry fluorescence intensity in hepatic organoids [1]: increase

SMILES: Cc1oncc1C(=O)Nc1ccc(C(F)(F)F)cc1 [leflunomide]
- mCherry fluorescence intensity in hepatic organoids [1]: increase

SMILES: CC(C)(C)c1cc(O)ccc1O [tBHQ, tert-Butylhydroquinone]
- mCherry fluorescence intensity at different concentrations ([1]; hepatic organoids): increased in a concentration-dependent manner
